From US11825838B2, “Tricyclic carboxamides for controlling arthropods” (Bayer CropScience Aktiengesellschaft, priority 2017, dated 2023)

Key:
Format in all cases: in vivo
[1] = test system: Musca domestica; assay: Musca domestica test; details: application rate 100 ppm, adult houseflies, after 2 days
Description: (§1) Solvent: dimethyl sulfoxide
(§2) To produce a suitable active ingredient formulation, 10 mg of active ingredient are mixed with 0.5 ml of dimethyl sulfoxide, and the concentrate is diluted with water to the desired concentration.
Vessels containing a sponge treated with sugar solution and the active ingredient formulation of the desired concentration are populated with 10 adult houseflies (Musca domestica).
After 2 days, the rate of extermination in % is determined. 100% means that all of the flies have been killed; 0% means that none of the flies have been killed.

[2] = test system: Phaedon cochleariae; assay: Phaedon cochleariae spray test (PHAECO)
Description: Phaedon cochleariae—Spray Test
(§3) To produce a suitable active ingredient formulation, 1 part by weight of active ingredient is dissolved with the specified parts by weight of solvent and made up to the desired concentration with water containing an emulsifier concentration of 1000 ppm. To produce further test concentrations, the formulation is diluted with emulsifier-containing water.
After 7 days, the efficacy in % is determined. 100% means that all the beetle larvae have been killed; 0% means that no beetle larvae have been killed.
Phaedon cochleariae—Spray Test (PHAECO)
as §3, with “compound” for “ingredient”
Discs of Chinese cabbage leaves (Brassica pekinensis) are sprayed with an active compound formulation of the desired concentration and, after drying, populated with larvae of the mustard beetle (Phaedon cochleariae).
After the desired time, the efficacy in % is determined. 100% means that all the beetle larvae have been killed; 0% means that no beetle larvae have been killed.

[3] = test system: Ctenocephalides felis; assay: Ctenocephalides felis in vitro contact test with adult cat fleas; details: application rate 5 μg/cm^2 (=500 g/ha), after 48 h, adult cat fleas dead or moribund
Description: Ctenocephalides felis—In Vitro Contact Tests with Adult Cat Fleas
(§4) For the coating of the test tubes, 9 mg of active ingredient are first dissolved in 1 ml of acetone p.a. and then diluted to the desired concentration with acetone p.a. 250 μl of the solution are distributed homogeneously on the inner walls and the base of a 25 ml glass tube by turning and rocking on an orbital shaker (rocking rotation at 30 rpm for 2 h). With 900 ppm of active ingredient solution and internal surface area 44.7 cm^2, given homogeneous distribution, an area-based dose of 5 μg/cm^2 is achieved.
After the solvent has evaporated off, the tubes are populated with 5-10 adult cat fleas (Ctenocephalides felis), sealed with a perforated plastic lid and incubated in a horizontal position at room temperature and ambient humidity. After 48 h, efficacy is determined. To this end, the tubes are stood upright and the fleas are knocked to the base of the tube. Fleas which remain motionless at the base or move in an uncoordinated manner are considered to be dead or moribund.
100% efficacy means that all the fleas were dead or moribund. 0% efficacy means that no fleas were harmed.

[4] = test system: Lucilia cuprina; assay: Lucilia cuprina test; details: application rate 100 ppm, L1 larvae, after 2 days
Description: as §1, §2
About 20 L1 larvae of the Australian sheep blowfly (Lucilia cuprina) are transferred into a test vessel containing minced horsemeat and the active compound preparation of the desired concentration.
After 2 days, the rate of extermination in % is determined. 100% means that all the larvae have been killed; 0% means that no larvae have been killed.

[5] = test system: Rhipicephalus sanguineus; assay: Rhipicephalus sanguineus in vitro contact test with adult brown dog ticks; details: application rate 5 μg/cm^2 (=500 g/ha), after 48 h, adult dog ticks dead or moribund
Description: Rhipicephalus sanguineus—In Vitro Contact Tests with Adult Brown Dog Ticks
as §4
After the solvent has evaporated off, the tubes are populated with 5-10 adult dog ticks (Rhipicephalus sanguineus), sealed with a perforated plastic lid and incubated in a horizontal position in the dark at room temperature and ambient humidity. After 48 h, efficacy is determined. To this end, the ticks are knocked to the base of the tube and incubated on a hotplate at 45-50° C. for not more than 5 min. Ticks which remain motionless on the base or move in such an uncoordinated manner that they are unable to deliberately avoid the heat by climbing upwards are considered to be dead or moribund.
An efficacy of 100% means that all the ticks were dead or moribund. 0% efficacy means that none of the ticks were harmed.

[6] = test system: Myzus persicae; assay: Myzus persicae spray test (MYZUPE); details: for efficacy: application rate 100 g/ha, spray, after 5 days
Description: Myzus persicae—Spray Test
as §3
Discs of Chinese cabbage leaves (Brassica pekinensis) infested by all stages of the green peach aphid (Myzus persicae) are sprayed with an active compound preparation of the desired concentration.
After 5 days, the efficacy in % is determined. 100% means that all the aphids have been killed; 0% means that no aphids have been killed.
Myzus Persicae—Spray Test (MYZUPE)
as §3, with “compound” for “ingredient”
Discs of Chinese cabbage leaves (Brassica pekinensis) infested with all stages of the green peach aphid (Myzus persicae) are sprayed with an active compound formulation of the desired concentration.
After the desired time, the efficacy in % is determined. 100% means that all the aphids have been killed; 0% means that no aphids have been killed.

[7] = test system: cattle ticks (Boophilus microplus) Parkhurst strain, SP-resistant; assay: Boophilus microplus dip test; details: application rate 100 ppm, assessed after 7 days by laying of fertile eggs
Description: Boophilus microplus—Dip Test
Test animals: cattle ticks (Boophilus microplus) Parkhurst strain, SP-resistant
as §1
10 mg of active ingredient are dissolved in 0.5 ml of dimethyl sulfoxide. To produce a suitable formulation, the active ingredient solution is diluted with water to the concentration desired in each case. This active ingredient formulation is pipetted into tubes. 8-10 engorged adult female cattle ticks (Boophilus microplus) are transferred into a further tube with holes. The tube is immersed into the active ingredient formulation, and all the ticks are completely wetted. After the liquid has run out, the ticks are transferred on filter discs into plastic dishes and stored in a climate-controlled room.
Efficacy is assessed after 7 days by laying of fertile eggs. Eggs which are not visibly fertile are stored in a climate-controlled cabinet until the larvae hatch after about 42 days. An efficacy of 100% means that none of the ticks has laid any fertile eggs; 0% means that all the eggs are fertile.

[8] = test system: Spodoptera frugiperda; assay: Spodoptera frugiperda spray test (SPODFR)
Description: Spodoptera frugiperda—Spray Test
as §3
Leaf discs of maize (Zea mays) are sprayed with an active ingredient formulation of the desired concentration and, after drying, populated with caterpillars of the armyworm (Spodoptera frugiperda).
After 7 days, the efficacy in % is determined. 100% means that all the caterpillars have been killed; 0% means that no caterpillar has been killed.
Spodoptera frugiperda—Spray Test (SPODFR)
as §3, with “compound” for “ingredient”
Leaf discs of maize (Zea mays) are sprayed with an active compound formulation of the desired concentration and, after drying, populated with caterpillars of the armyworm (Spodoptera frugiperda).
After the desired time, the efficacy in % is determined. 100% means that all the caterpillars have been killed; 0% means that no caterpillar has been killed.

[9] = application rate 100 g/ha, spray, after 7 days

| Structure (SMILES) | efficacy (rate of extermination) [1] | Emax at 100 g/ha ([2]; Phaedon cochleariae, 168 h, PHAECO, 100 g ai/ha, 7 dat, read-out: % efficacy dat) | pest or weed control at 100 g/ha ([2]; Phaedon cochleariae, 168 h, application rate 100 g/ha, spray, after 7 days, read-out: efficacy) | efficacy [3] | efficacy (rate of extermination) [4] | efficacy [5] | Emax at 100 g/ha ([6]; Myzus persicae, 120 h, MYZUPE, 100 g ai/ha, 5 dat, read-out: % efficacy dat) | efficacy [6] | efficacy [7] | Emax at 100 g/ha ([8]; Spodoptera frugiperda, 168 h, SPODFR, 100 g ai/ha, 7 dat, read-out: % efficacy dat) | pest or weed control at 100 g/ha ([8]; Spodoptera frugiperda, 168 h, application rate 100 g/ha, spray, after 7 days, read-out: efficacy) | efficacy [2, 9] | efficacy [8, 9] |
| --- | --- | --- | --- | --- | --- | --- | --- | --- | --- | --- | --- | --- | --- |
| O=C(NC1CC1)c1cc(-c2cnn(-c3c(Cl)cc(C(F)(C(F)(F)F)C(F)(F)F)cc3Cl)c2)sc1Br [I-T1-1] | 100% | 100% | 100% | 100% | 100% | 100% | 100% | 100% | 100% | 100% | 100% | – | – |
| Cc1sc(-c2cnn(-c3c(Cl)cc(C(F)(C(F)(F)F)C(F)(F)F)cc3Cl)c2)cc1C(=O)NC1CC1 [I-T1-11] | 100% | – | – | 100% | 100% | 100% | – | 90% | 100% | – | – | 100% | 100% |
